Results reported in patent publication US12599592B2, “Therapeutic small molecules for treatment of pulmonary hypertension” (UNIVERSITY OF PITTSBURGH—OF THE COMMONWEALTH SYSTEM OF …, priority 2020, dated 2026).

How the values were obtained:
[1] = test system: PAECs; assay: Apoptosis by caspase-3/7 activity in PAECs; assay type: cell-based, human
Excerpt: Cell culture: Primary human pulmonary artery endothelial cells (PAECs) and human pulmonary artery smooth muscle cells (PASMCs) were purchased from Lonza (302-05A, CC-2581). Of note, the same two male donors were the source of all PAECs in the experiments shown. Two additional male donors were the source for all PASMCs in the experiments shown. Cells from these and any donors were characterized by flow cytometry for consistent expression of cell surface markers and by RNA (RT-qPCR) analysis of endothelial and smooth muscle gene expression. PAECs were cultured in EGM-2 media (CC-3121) along with supplements (CC-4133), and PASMCs were cultured in SmGM-2 culture media (Lonza, CC-3182) at 5% CO2 in a humidified incubator.
Human recombinant galectin-8 (1305-GA-050) was purchased from R&D Systems and was used at a working concentration of 30 nM.
For hypoxia exposure, cells were plated in 6-well cell culture plates at 1×10^5 cells/well, grown for 24 hr and placed into a normobaric hypoxia chamber (1% O2) for 24 h under specific treatment conditions. Namely, for I-BET and siLGALS8 exposures, cells were either pre-treated with I-BET/vehicle control (VC) or transfected with siLgals8/Scr for 24 h. Then, they were cultured in basal media at 1% 02. After 24 h, caspase activity and mitochondrial superoxide levels were quantified. To detect activation status of pSTAT1/STAT1 by immunoblot, cells were exposed to 8 h of hypoxia.
(§1) In IL-6/sIL-6R+hypoxia experiments, a human recombinant IL-6/IL-6R alpha protein chimera (25 ng/ml, Millipore) was administered at 70-80% confluency for 48 h in complete media along with vehicle control (DMSO, Sigma-41639). BRD2889 (1 uM) vs. vehicle control were added, as indicated, and placed into a hypoxia chamber for 24 h. The hypoxia chamber (modular incubator chamber) was obtained from Billups-Rothenberg Inc. (Del Mar, Calif) and placed in regulated CO2 incubator at 37° C.
Cellular apoptosis: Caspase-3/7 activity was quantified using the Caspase-Glo 3/7 Assay (Promega), according to manufacturer's instructions. Caspase-3/7 activity was normalized to total protein content determined by BCA method (Thermo Fisher Scientific).

[2] = test system: PAECs; assay: Global transcriptome microarray in PAECs; assay type: cell-based, human; details: transcriptional array, hypoxia +/- BRD2889
Excerpt: The gene expression was normalized with Robust Multiarray Analysis (RMA). For BRD2889, the same approach was employed using Affymetrix Clariom S array on RNA isolated from PAECs treated with BRD2889 or vehicle and subjected to either hypoxia or normoxia. Differentially expressed genes were defined as any gene for which the FDR adjusted p-value was below 0.05 (n=3/grp). Reversed genes were further defined as those genes that were differentially expressed in both (hypoxia versus normoxia) and in (hypoxia+BRD2889 versus hypoxia)+vehicle as well as were regulated in opposite directions. Similarly, for I-BET that were differentially expressed in IL-1β+VC versus control and IL-1β+I-BET versus IL-1β+VC and were regulated in opposite directions. The data for both I-BET and BRD2889 have been submitted to the NCBI Gene Expression Omnibus with accession numbers GSE125508 and GSE160255, respectively.

[3] = test system: SU5416-hypoxic pulmonary arterial hypertension rats; assay: SU5416-hypoxia pulmonary arterial hypertension rat model; assay type: in vivo, Sprague-Dawley rats
Experimental: Briefly, 10 week old male Sprague-Dawley rats were injected i.p. with 20 mg/kg of SU5416 (Sigma), placed in normobaric hypoxia (10% O2) for 3 weeks and then transferred to normoxia for 2 weeks. During hypoxic exposure, chambers were opened twice a week for cleaning and replenishment of food and water. […] For BRD2889 vs. vehicle control dosing, i.p. injections every 5 days (5 mg/kg) were administered during the final two weeks of normoxia. Oxygen concentrations were continuously monitored with blood gas analyzers.
(§2) Following euthanasia, right ventricle/[left ventricle+septum]
Measurement of GST activity: The GST activity from lung tissue and PAECs was assayed using GST assay kit (Cayman, MI, USA) per the manufacturer's instructions.
(§3) Rodent echocardiography: Echocardiography was performed using a 15-45 MHz transthoracic transducer and a Visual Sonics Vevo 3100 system (Fujifilm). Inhaled isoflurane anesthesia was used at 2% in 100% O2 during positioning and hair removal and then decreased to isoflurane 0.8% during imaging.

[4] = test system: hypoxic IL-6 Tg mice; assay: Hypoxic IL-6 transgenic pulmonary arterial hypertension mouse model; assay type: in vivo, IL-6 transgenic C57BL/6 mice
Experimental: as §2
Pulmonary-specific IL-6 transgenic mice (C57BL/6 background) were described previously (Steiner M K et al. Circ Res. 2009, 104, 236-244, 228p following 244). These mice were bred in house, and 12 week old male transgenic mice vs. control littermates were compared. Mice were injected i.p. every 3 days with vehicle control (2.5% DMSO) vs. BRD2889 (5 mg/kg vs. 10 mg/kg), followed by exposure to normobaric hypoxia (10% O2; OxyCycler chamber, Biospherix Ltd, Redfield, NY) for 14 days, as described (Steiner M K et al. Circ Res. 2009, 104, 236-244, 228p following 244).
as §3

[5] = test system: PAECs; assay: BrdU proliferation assay in PAECs; assay type: cell-based, human
Experimental: (§4) BrdU growth assay: Cell proliferation was assayed relative to day 0 using a BrdU Cell Proliferation Assay Kit (#6813, Cell Signaling) according to the manufacturer's protocol after incubation for 2 h with BrdU.

[6] = test system: PASMCs; assay: BrdU proliferation in PASMCs; assay type: cell-based, human; details: IL-6/sIL-6R + hypoxia
Experimental: as §1, §4

[7] = hypoxic PAECs with siRNA knockdown of ISCU
[8] = BRD2889 5 mg/kg i.p. every 5 days
[9] = BRD2889 10 mg/kg vs vehicle, 10 days of treatment
[10] = BRD2889 5 and 10 mg/kg IP every three days

## COc1ccc(C#CC2CCCN(C(=O)/C=C/c3cc(OC)c(OC)c(OC)c3)C2=O)cc1 (stereo not drawn) [BRD2889]
[1]; PAECs, IL-6/sIL-6R + hypoxia
  apoptosis (caspase 3/7): reduced apoptosis
[1]; hypoxic PAECs
  apoptosis (caspase 3/7 activity): reversed the increase
[1]; [7]
  hypoxic increase in apoptosis: did not reverse
[2]
  number of genes altered by hypoxia but reversed by drug: 3830 genes
[3]; [8]
  Fulton index (RV/LV+S): reduced
  ISCU in CD31+ endothelium: increased
  arteriolar muscularization: reduced
  cleaved caspase-3 (CC-3) in CD31+ endothelium: decreased
  right ventricular systolic pressure (RVSP): reduced
[3]; BRD2889 5 mg/kg i.p. every 5 days, final 2 weeks in normoxia
  lung GST activity: decreased
[3]; BRD2889 vs vehicle
  left ventricular function (LVPW thickness, LVEF, LVFS): did not exhibit altered left ventricular function
[3]; three SU5416-hypoxic rats treated with drug
  ascites: accumulation of mild ascites
[4]; BRD2889 5 mg/kg (low) and 10 mg/kg (high) IP every three days, 14 days hypoxia
  lung total GST enzyme activity: dose-dependent reduction
[4]; [9]
  heart rate: No differences
  left ventricular function (fractional shortening, ejection fraction, PW thickness): No differences
[4]; [10]
  Fulton index: dose-dependent reduction
  ISCU in arterioles, particularly CD31+ endothelium (in situ staining): rescued
  RVSP: dose-dependent reduction
  arteriolar muscularization: reduced
  cleaved caspase-3 (CC-3) in whole vessels: decreased
[5]; PAECs, IL-6/sIL-6R + hypoxia
  proliferation (BrdU): increased proliferation
[5]; hypoxic PAECs
  proliferation (BrdU incorporation): reversed the decrease
[5]; [7]
  hypoxia-induced decrease in proliferation: did not reverse
[6]
  proliferation: did not affect
